The experiment has as its target NAMPT (recombinant human) (Homo sapiens, UniProt P43490). The experiment is described as follows: biolayer interferometry. Format: binding.

Chain of NAMPT (recombinant human) (P43490 whole entry): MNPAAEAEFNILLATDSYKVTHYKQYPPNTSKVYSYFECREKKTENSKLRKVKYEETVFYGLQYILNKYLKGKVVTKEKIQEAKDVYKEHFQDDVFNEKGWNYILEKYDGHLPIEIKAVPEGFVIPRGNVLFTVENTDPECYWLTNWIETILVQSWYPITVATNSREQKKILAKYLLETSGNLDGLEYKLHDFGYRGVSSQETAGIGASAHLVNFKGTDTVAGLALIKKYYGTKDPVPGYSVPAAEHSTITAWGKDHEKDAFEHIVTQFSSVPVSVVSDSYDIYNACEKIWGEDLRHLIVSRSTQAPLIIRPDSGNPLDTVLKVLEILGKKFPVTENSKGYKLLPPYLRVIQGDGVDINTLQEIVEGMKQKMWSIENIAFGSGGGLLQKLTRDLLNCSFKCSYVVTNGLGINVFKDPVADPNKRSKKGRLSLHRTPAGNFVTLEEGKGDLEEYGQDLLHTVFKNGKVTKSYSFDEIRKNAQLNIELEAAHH

Turning to `O=C(CC(C(=O)O)c1c[nH]c2ccccc12)c1ccc(F)cc1F` (racemic) [MA-5], the Kd is 106 µM.

The values are drawn from publication doi:10.1101/2025.04.18.649305v1 (biorxiv, 2025).
